# Test system: Salmonella typhimurium ATCC 14028
# Assay: Broth microdilution MIC/MBC
# Format: cell-based
# Settings: not given
# How it was run: (§1)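 Minimal inhibitory concentrations are determined by broth microdilution following EUCAST and CLSI. DMSO-dissolved compounds are serially halved from 1000 to 0.488 µg/ml final; inocula are 0.5 McFarland.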
row,Structure (SMILES),MBC/MIC
1,"CCCc1ccc(/C=N/NC(=O)c2ccc(O)cc2O)cc1 [Compound 13, 2,4-dihydroxy-N-[(4-propylphenyl)methylidene]benzohydrazide]",> 1
2,"O=C(N/N=C/c1cc(I)cc(I)c1O)c1ccc(O)cc1O [Compound 18, 2,4-dihydroxy-N-[(2-hydroxy-3,5-diiodophenyl)methylidene]benzohydrazide]",> 1

# Same assay, conditions: Salmonella enterica
Structure (SMILES),MBC [µg/mL],MIC [µg/mL]
"CCCc1ccc(/C=N/NC(=O)c2ccc(O)cc2O)cc1 [Compound 13, 2,4-dihydroxy-N-[(4-propylphenyl)methylidene]benzohydrazide]",> 1000,1000
"O=C(N/N=C/c1cc(I)cc(I)c1O)c1ccc(O)cc1O [Compound 18, 2,4-dihydroxy-N-[(2-hydroxy-3,5-diiodophenyl)methylidene]benzohydrazide]",> 1000,1000

# Test system: Staphylococcus aureus ATCC 43300
# Assay: Broth microdilution MIC/MBC
# Format: cell-based
# Settings: Staphylococcus aureus ATCC 43300 (MRSA)
# How it was run: as §1
Structure (SMILES),MBC [µg/mL],MBC/MIC,MIC [µg/mL]
"CCCc1ccc(/C=N/NC(=O)c2ccc(O)cc2O)cc1 [Compound 13, 2,4-dihydroxy-N-[(4-propylphenyl)methylidene]benzohydrazide]",> 1000,> 1,1000
"O=C(N/N=C/c1cc(I)cc(I)c1O)c1ccc(O)cc1O [Compound 18, 2,4-dihydroxy-N-[(2-hydroxy-3,5-diiodophenyl)methylidene]benzohydrazide]",31.2,8,3.91

# Test system: Proteus mirabilis ATCC 12453
# Assay: Broth microdilution MIC/MBC
# Format: cell-based
# Settings: not given
# How it was run: as §1
row,Structure (SMILES),MBC/MIC
1,"CCCc1ccc(/C=N/NC(=O)c2ccc(O)cc2O)cc1 [Compound 13, 2,4-dihydroxy-N-[(4-propylphenyl)methylidene]benzohydrazide]",> 1
2,"O=C(N/N=C/c1cc(I)cc(I)c1O)c1ccc(O)cc1O [Compound 18, 2,4-dihydroxy-N-[(2-hydroxy-3,5-diiodophenyl)methylidene]benzohydrazide]",> 2

# Same assay, conditions: ATCC12453
Structure (SMILES),MBC [µg/mL],MIC [µg/mL]
"CCCc1ccc(/C=N/NC(=O)c2ccc(O)cc2O)cc1 [Compound 13, 2,4-dihydroxy-N-[(4-propylphenyl)methylidene]benzohydrazide]",> 1000,1000
"O=C(N/N=C/c1cc(I)cc(I)c1O)c1ccc(O)cc1O [Compound 18, 2,4-dihydroxy-N-[(2-hydroxy-3,5-diiodophenyl)methylidene]benzohydrazide]",> 1000,500

# Test system: Micrococcus luteus ATCC 10240
# Assay: Broth microdilution MIC/MBC
# Format: cell-based
# Settings: not given
# How it was run: as §1
Structure (SMILES),MBC/MIC,MIC [µg/mL]
"CCCc1ccc(/C=N/NC(=O)c2ccc(O)cc2O)cc1 [Compound 13, 2,4-dihydroxy-N-[(4-propylphenyl)methylidene]benzohydrazide]",> 1,–
"O=C(N/N=C/c1cc(I)cc(I)c1O)c1ccc(O)cc1O [Compound 18, 2,4-dihydroxy-N-[(2-hydroxy-3,5-diiodophenyl)methylidene]benzohydrazide]",4,0.48

# Same assay, conditions: ATCC10240
row,Structure (SMILES),MBC [µg/mL]
1,"CCCc1ccc(/C=N/NC(=O)c2ccc(O)cc2O)cc1 [Compound 13, 2,4-dihydroxy-N-[(4-propylphenyl)methylidene]benzohydrazide]",> 1000
2,"O=C(N/N=C/c1cc(I)cc(I)c1O)c1ccc(O)cc1O [Compound 18, 2,4-dihydroxy-N-[(2-hydroxy-3,5-diiodophenyl)methylidene]benzohydrazide]",1.95

# Same assay, conditions: ATCC10240, read-out: MIC
row,Structure (SMILES),MIC [µg/mL]
1,"CCCc1ccc(/C=N/NC(=O)c2ccc(O)cc2O)cc1 [Compound 13, 2,4-dihydroxy-N-[(4-propylphenyl)methylidene]benzohydrazide]",1000
2,"O=C(N/N=C/c1cc(I)cc(I)c1O)c1ccc(O)cc1O [Compound 18, 2,4-dihydroxy-N-[(2-hydroxy-3,5-diiodophenyl)methylidene]benzohydrazide]",0.48

# Test system: Pseudomonas aeruginosa ATCC 9027
# Assay: Broth microdilution MIC/MBC
# Format: cell-based
# Settings: not given
# How it was run: as §1
row,Structure (SMILES),MBC/MIC
1,"CCCc1ccc(/C=N/NC(=O)c2ccc(O)cc2O)cc1 [Compound 13, 2,4-dihydroxy-N-[(4-propylphenyl)methylidene]benzohydrazide]",> 1
2,"O=C(N/N=C/c1cc(I)cc(I)c1O)c1ccc(O)cc1O [Compound 18, 2,4-dihydroxy-N-[(2-hydroxy-3,5-diiodophenyl)methylidene]benzohydrazide]",> 1

# Same assay, conditions: ATCC9027
Structure (SMILES),MBC [µg/mL],MIC [µg/mL]
"CCCc1ccc(/C=N/NC(=O)c2ccc(O)cc2O)cc1 [Compound 13, 2,4-dihydroxy-N-[(4-propylphenyl)methylidene]benzohydrazide]",> 1000,1000
"O=C(N/N=C/c1cc(I)cc(I)c1O)c1ccc(O)cc1O [Compound 18, 2,4-dihydroxy-N-[(2-hydroxy-3,5-diiodophenyl)methylidene]benzohydrazide]",> 1000,1000

# Test system: Staphylococcus epidermidis ATCC 12228
# Assay: Broth microdilution MIC/MBC
# Format: cell-based
# Settings: not given
# How it was run: as §1
Structure (SMILES),MBC/MIC,MIC [µg/mL]
"CCCc1ccc(/C=N/NC(=O)c2ccc(O)cc2O)cc1 [Compound 13, 2,4-dihydroxy-N-[(4-propylphenyl)methylidene]benzohydrazide]",> 1,–
"O=C(N/N=C/c1cc(I)cc(I)c1O)c1ccc(O)cc1O [Compound 18, 2,4-dihydroxy-N-[(2-hydroxy-3,5-diiodophenyl)methylidene]benzohydrazide]",8,0.98

# Same assay, conditions: ATCC12228
row,Structure (SMILES),MBC [µg/mL]
1,"CCCc1ccc(/C=N/NC(=O)c2ccc(O)cc2O)cc1 [Compound 13, 2,4-dihydroxy-N-[(4-propylphenyl)methylidene]benzohydrazide]",> 1000
2,"O=C(N/N=C/c1cc(I)cc(I)c1O)c1ccc(O)cc1O [Compound 18, 2,4-dihydroxy-N-[(2-hydroxy-3,5-diiodophenyl)methylidene]benzohydrazide]",7.81

# Same assay, conditions: ATCC12228, read-out: MIC
row,Structure (SMILES),MIC [µg/mL]
1,"CCCc1ccc(/C=N/NC(=O)c2ccc(O)cc2O)cc1 [Compound 13, 2,4-dihydroxy-N-[(4-propylphenyl)methylidene]benzohydrazide]",1000
2,"O=C(N/N=C/c1cc(I)cc(I)c1O)c1ccc(O)cc1O [Compound 18, 2,4-dihydroxy-N-[(2-hydroxy-3,5-diiodophenyl)methylidene]benzohydrazide]",0.98

# Test system: Staphylococcus aureus ATCC 29213
# Assay: Broth microdilution MIC/MBC
# Format: cell-based
# Settings: not given
# How it was run: as §1
row,Structure (SMILES),MBC/MIC
1,"CCCc1ccc(/C=N/NC(=O)c2ccc(O)cc2O)cc1 [Compound 13, 2,4-dihydroxy-N-[(4-propylphenyl)methylidene]benzohydrazide]",> 1
2,"O=C(N/N=C/c1cc(I)cc(I)c1O)c1ccc(O)cc1O [Compound 18, 2,4-dihydroxy-N-[(2-hydroxy-3,5-diiodophenyl)methylidene]benzohydrazide]",2

# Same assay, conditions: ATCC29213
Structure (SMILES),MBC [µg/mL],MIC [µg/mL]
"CCCc1ccc(/C=N/NC(=O)c2ccc(O)cc2O)cc1 [Compound 13, 2,4-dihydroxy-N-[(4-propylphenyl)methylidene]benzohydrazide]",> 1000,1000
"O=C(N/N=C/c1cc(I)cc(I)c1O)c1ccc(O)cc1O [Compound 18, 2,4-dihydroxy-N-[(2-hydroxy-3,5-diiodophenyl)methylidene]benzohydrazide]",15.6,7.81

# Test system: Candida glabrata ATCC 90030
# Assay: Broth microdilution MIC/MFC
# Format: cell-based
# Settings: not given
# How it was run: as §1
row,Structure (SMILES),MFC/MIC
1,"CCCc1ccc(/C=N/NC(=O)c2ccc(O)cc2O)cc1 [Compound 13, 2,4-dihydroxy-N-[(4-propylphenyl)methylidene]benzohydrazide]",> 1
2,"O=C(N/N=C/c1cc(I)cc(I)c1O)c1ccc(O)cc1O [Compound 18, 2,4-dihydroxy-N-[(2-hydroxy-3,5-diiodophenyl)methylidene]benzohydrazide]",> 1

# Same assay, conditions: Nakaseomyces glabratus, ATCC90030, read-out: MFC
row,Structure (SMILES),MFC [µg/mL]
1,"CCCc1ccc(/C=N/NC(=O)c2ccc(O)cc2O)cc1 [Compound 13, 2,4-dihydroxy-N-[(4-propylphenyl)methylidene]benzohydrazide]",> 1000
2,"O=C(N/N=C/c1cc(I)cc(I)c1O)c1ccc(O)cc1O [Compound 18, 2,4-dihydroxy-N-[(2-hydroxy-3,5-diiodophenyl)methylidene]benzohydrazide]",> 1000

# Same assay, conditions: Nakaseomyces glabratus, ATCC90030, read-out: MIC
row,Structure (SMILES),MIC [µg/mL]
1,"CCCc1ccc(/C=N/NC(=O)c2ccc(O)cc2O)cc1 [Compound 13, 2,4-dihydroxy-N-[(4-propylphenyl)methylidene]benzohydrazide]",1000
2,"O=C(N/N=C/c1cc(I)cc(I)c1O)c1ccc(O)cc1O [Compound 18, 2,4-dihydroxy-N-[(2-hydroxy-3,5-diiodophenyl)methylidene]benzohydrazide]",1000

# Test system: Candida albicans ATCC 2091
# Assay: Broth microdilution MIC/MFC
# Format: cell-based
# Settings: not given
# How it was run: as §1
row,Structure (SMILES),MFC/MIC
1,"O=C(N/N=C/c1cc(I)cc(I)c1O)c1ccc(O)cc1O [Compound 18, 2,4-dihydroxy-N-[(2-hydroxy-3,5-diiodophenyl)methylidene]benzohydrazide]",> 2

# Same assay, conditions: ATCC2091, read-out: MFC
row,Structure (SMILES),MFC [µg/mL]
1,"O=C(N/N=C/c1cc(I)cc(I)c1O)c1ccc(O)cc1O [Compound 18, 2,4-dihydroxy-N-[(2-hydroxy-3,5-diiodophenyl)methylidene]benzohydrazide]",> 1000

# Same assay, conditions: ATCC2091, read-out: MIC
row,Structure (SMILES),MIC [µg/mL]
1,"CCCc1ccc(/C=N/NC(=O)c2ccc(O)cc2O)cc1 [Compound 13, 2,4-dihydroxy-N-[(4-propylphenyl)methylidene]benzohydrazide]",> 1000
2,"O=C(N/N=C/c1cc(I)cc(I)c1O)c1ccc(O)cc1O [Compound 18, 2,4-dihydroxy-N-[(2-hydroxy-3,5-diiodophenyl)methylidene]benzohydrazide]",500

# Test system: Candida albicans ATCC 10231
# Assay: Broth microdilution MIC/MFC
# Format: cell-based
# Settings: not given
# How it was run: as §1
row,Structure (SMILES),MFC/MIC
1,"CCCc1ccc(/C=N/NC(=O)c2ccc(O)cc2O)cc1 [Compound 13, 2,4-dihydroxy-N-[(4-propylphenyl)methylidene]benzohydrazide]",> 1
2,"O=C(N/N=C/c1cc(I)cc(I)c1O)c1ccc(O)cc1O [Compound 18, 2,4-dihydroxy-N-[(2-hydroxy-3,5-diiodophenyl)methylidene]benzohydrazide]",> 1

# Same assay, conditions: ATCC10231, read-out: MFC
row,Structure (SMILES),MFC [µg/mL]
1,"CCCc1ccc(/C=N/NC(=O)c2ccc(O)cc2O)cc1 [Compound 13, 2,4-dihydroxy-N-[(4-propylphenyl)methylidene]benzohydrazide]",> 1000
2,"O=C(N/N=C/c1cc(I)cc(I)c1O)c1ccc(O)cc1O [Compound 18, 2,4-dihydroxy-N-[(2-hydroxy-3,5-diiodophenyl)methylidene]benzohydrazide]",> 1000

# Same assay, conditions: ATCC10231, read-out: MIC
row,Structure (SMILES),MIC [µg/mL]
1,"CCCc1ccc(/C=N/NC(=O)c2ccc(O)cc2O)cc1 [Compound 13, 2,4-dihydroxy-N-[(4-propylphenyl)methylidene]benzohydrazide]",1000
2,"O=C(N/N=C/c1cc(I)cc(I)c1O)c1ccc(O)cc1O [Compound 18, 2,4-dihydroxy-N-[(2-hydroxy-3,5-diiodophenyl)methylidene]benzohydrazide]",1000

# From article PMC10743905, “Design, Synthesis, and In Vitro and In Vivo Bioactivity Studies of Hydrazide–Hydrazones of 2,4-Dihydroxybenzoic Acid” (International Journal of Molecular Sciences, 2023)
